# In patent US20070092558A1, “Methods of Preparing Targeted Immunoliposomes” (priority 2005, published 2007):
# Legend:
# [1] = tested on: A431 (epidermoid cancer cells); settings: 0-18 μg/ml [DOX], 1-hour treatment, 72-hour incubation, FIG. 3B
# [2] = tested on: MD-MBA 231 (breast cancer cells); assay: cytotoxicity assay (ATPlite luminescence), 1 h treatment then 72 h incubation; settings: MD-MBA 231 cells, 0-18 μg/ml [DOX], FIG. 3A
smiles,measurement,setting,value
"COc1cccc2c1C(=O)c1c(O)c3c(c(O)c1C2=O)C[C@@](O)(C(=O)CO)C[C@@H]3O[C@H]1C[C@H](N)[C@H](O)[C@H](C)O1 [free doxorubicin, doxorubicin]",cytotoxicity (cell viability),[1],concentration effects on cell viability
same,cytotoxicity (cell viability),[2],concentration effects on cell viability
